The experiment deals with T1, PARP (Homo sapiens, UniProt P09874).
T1 construct: purchased Trevigen 4667-050-01
T1 sequence (P09874 whole entry): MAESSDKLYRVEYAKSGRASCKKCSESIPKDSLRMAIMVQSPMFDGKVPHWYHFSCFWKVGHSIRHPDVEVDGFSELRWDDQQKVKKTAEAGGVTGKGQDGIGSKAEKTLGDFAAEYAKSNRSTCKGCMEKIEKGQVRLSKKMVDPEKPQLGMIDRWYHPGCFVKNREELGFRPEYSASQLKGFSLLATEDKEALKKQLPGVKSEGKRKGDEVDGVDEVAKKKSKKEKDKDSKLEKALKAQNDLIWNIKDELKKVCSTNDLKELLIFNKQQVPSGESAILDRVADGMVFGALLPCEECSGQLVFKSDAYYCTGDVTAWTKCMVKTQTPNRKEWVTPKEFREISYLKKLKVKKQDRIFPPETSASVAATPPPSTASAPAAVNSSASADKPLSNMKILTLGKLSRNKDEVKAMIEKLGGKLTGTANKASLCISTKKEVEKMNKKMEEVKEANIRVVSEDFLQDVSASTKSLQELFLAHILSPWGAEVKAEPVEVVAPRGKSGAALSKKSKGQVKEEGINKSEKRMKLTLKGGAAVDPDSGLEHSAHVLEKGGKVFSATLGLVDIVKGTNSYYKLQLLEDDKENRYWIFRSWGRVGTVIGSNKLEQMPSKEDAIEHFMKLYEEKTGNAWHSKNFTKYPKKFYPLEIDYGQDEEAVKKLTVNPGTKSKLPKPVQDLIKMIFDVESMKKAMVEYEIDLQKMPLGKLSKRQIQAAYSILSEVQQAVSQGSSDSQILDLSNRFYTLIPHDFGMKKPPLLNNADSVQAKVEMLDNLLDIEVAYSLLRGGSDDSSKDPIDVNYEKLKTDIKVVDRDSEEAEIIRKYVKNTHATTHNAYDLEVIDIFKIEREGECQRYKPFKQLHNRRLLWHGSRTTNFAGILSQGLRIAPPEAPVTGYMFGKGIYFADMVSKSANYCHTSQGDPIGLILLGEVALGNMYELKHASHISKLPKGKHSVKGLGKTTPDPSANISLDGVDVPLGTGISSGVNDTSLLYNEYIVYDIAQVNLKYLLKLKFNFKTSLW
In words: Inhibitory experiment against PARP activity. The class given is biochemical. Conditions: PARP (Trevigen), [14C]NAD, activated DNA, 25° C., 10 minutes; concentration decreasing enzyme activity to 50%. How it is done: After mixing well, the contents were warmed to 25° C. in a water bath. After 10 minutes, the reaction was stopped by adding 1 mL of ice-cold 20% trichloroacetic acid and the test tube was left on ice. The precipitates were collected on a glass fiber filter by suction filtration and washed 5 times with 5% trichloroacetic acid. The radioactivity on the filter was measured with liquid scintillation counter.
A word on the IC50: it is the midpoint of a concentration-inhibition curve. `CN(Cc1ccccc1)Cc1ccc(-c2c[nH]c(=O)c3cccc(O)c23)cc1` [Example 12]: half-maximal inhibition (IC50) required 54 nM. To `CN(Cc1ccc(-c2c[nH]c(=O)c3cccc(O)c23)cc1)CC1CCCCC1` [Example 23] belongs 126 nM. `CN(CCCc1ccccc1)Cc1ccc(-c2c[nH]c(=O)c3cccc(O)c23)cc1` [Example 21] yielded a concentration for half-maximal inhibition (IC50) of 47 nM. Take `O=c1[nH]cc(-c2ccc(CN3CCCC3)cc2)c2c(O)cccc12` [Example 32]: the 50% inhibitory concentration (IC50) was determined as 33 nM.

The compound `O=c1[nH]cc(-c2ccc(CN3CC=C(c4ccccc4)CC3)cc2)c2c(O)cccc12` [Example 61, 1,2-Dihydro-5-hydroxy-1-oxo-4-[4-[(4-phenyl-1,2,3,6-tetrahydropyridine-1-yl)methyl]phenyl]isoquinoline] returned an IC50 of 20 nM. This IC50 lies about 1.6-fold lower than the previous one. The compound `CN(CCc1ccccc1)Cc1ccc(-c2c[nH]c(=O)c3cccc(O)c23)cc1` [Example 19] gave a half-inhibitory concentration (IC50) of 41 nM.

Values taken from US7425563B2, “4-(Substituted aryl)-5-hydroxyisoquinolinone derivative” (Kyorin Pharmaceutical Co., Ltd., priority 2002, dated 2008).
